Results reported in patent publication US12059412B2, “Pharmaceutical composition containing (R)-N-[1-(3,5-difluoro-4-methanesulfonylamino-phenyl)-ethyl]-3-(2-propyl-6-trifluoromethylpyridin-3-yl)-acrylamide and method for inhibiting crystal formation thereof” (Amorepacific Corporation, priority 2018, dated 2024).

Assay: Solubility of compound of Formula 1 in various solvents (excess compound, shaking, HPLC)
Format: physicochemical
Details: Ethanol; 25° C., 24 hours
Description: Since solvent that gives high solubility can dissolve the compound of Formula 1 in a small amount compared to a solvent that gives low solubility, in particular, when formulated into an external preparation of skin, a relatively higher amount of water may be contained, so that the feeling of use can be further enhanced.
An excessive amount of the compound of Formula 1 was added to 1 mL of each solvent shown in Table 1 below, and stirred at 25° C. at 200 rpm for 24 hours while shaking
(Shaking incubator, SI 600R, JEIO TECH, Korea). Thereafter, centrifugation was performed at 10,000 rpm for 10 minutes, and the supernatant was filtered using a membrane filter (0.2 μm), diluted appropriately with methanol, and analyzed by HPLC.

Solubility: 75.32 mg/mL
SMILES: CCCc1nc(C(F)(F)F)ccc1/C=C/C(=O)N[C@H](C)c1cc(F)c(NS(C)(=O)=O)c(F)c1 [compound of Formula 1, (R)-N-[1-(3,5-difluoro-4-methanesulfonylamino-phenyl)-ethyl]-3-(2-propyl-6-trifluoromethyl-pyridin-3-yl)-acrylamide]
